According to patent US5817670A, “Naphthyridine derivatives and pharmaceutical compositions thereof” (Yamanouchi Pharmaceutical Co., Ltd., priority 1994, dated 1998):
Counter-ions that a name gives are not always drawn.

Assays:
[1] = target: type IV phosphodiesterase; test: Phosphodiesterase inhibition activity (in vitro), Type IV; format: biochemical, human (peripheral blood of a healthy person)
Method: (1) Method for measuring type IV phosphodiesterase inhibition activity
The following assay was used for the evaluation of the capability of the compounds of the present invention to inhibit type IV phosphodiesterase.
1) Physiological saline (200 ml) supplemented with dextran (3%) was added to 500 ml of heparinized peripheral blood of a healthy person and incubated at 37° C. for 40 minutes to effect precipitation of erythrocytes. The supernatant after precipitation of erythrocytes was recovered and centrifuged once, and the resulting precipitate was suspended in buffer A (140 mM NaCl, 5 mM KCl, 5 mM glucose and 10 mM HEPES, pH 7.4), overlaid on a solution for density gradient centrifugation use (Ficoll solution) and then centrifuged at room temperature for 40 minutes at 450×g, thereby separating monocyte fraction and granulocyte fraction. The granulocyte fraction was washed once with buffer B (140 mM NaCl, 5 mM KCl, 1 mM CaCl2, 1 mM MgCl2, 5 mM glucose and 10 mM HEPES, pH 7.4) and suspended in buffer C (20 mM Bis-Tris, 5 mM dithioerythritol, 2 mM EGTA and 50 mM sodium acetate, pH 6.5) containing a protease inhibitor (50 μM phenyl-methyl-sulfonyl-fluoride, 5 μM pepstatin A, 40 μM leupeptin, 20 μM aprotinin or 2 mM benzamidine) and then the cells were disrupted using polytron and sonicator and subjected to ultracentrifugation (4° C., 100,000×g, 60 minutes) to give a soluble fraction.
2) The thus obtained soluble fraction was applied to a column of 1.6×10 cm packed with Q Sepharose which had been equilibrated with buffer C. Next, the column was washed with 300 ml of buffer C to remove non-absorbed protein. Phosphodiesterase was eluted with 200 ml of buffer C having 0.05 to 1.25M linear gradient of sodium acetate to collect 40 fractions each containing 5.0 ml eluate. Each fraction was checked for cAMP- and cGMP-metabolizing phosphodiesterase activities. Fractions having no cGMP- but cAMP-metabolizing activity and showing disappearance of the metabolizing activity by 10 μM rolipram (a type IV phosphodiesterase selective inhibitor) were collected to be used as a stock solution for the examination of type IV phosphodiesterase inhibition activity.
3) A predetermined amount of each compound to be tested was subjected to 10 minutes of reaction at 30° C. in a reaction mixture containing 40 mM Tris-HCl (pH 8.0), 5 mM MgCl2, 4 mM 2-mercaptoethanol, 0.3 μM cilostamide (a type III phosphodiesterase selective inhibitor), 1 μM cAMP, 10 nM ^3 H-cAMP and the type IV phosphodiesterase stock solution. The reaction solution was boiled at 90° C. for 1 minute, ice-cooled, mixed with 1 unit of 5'-nucleotidase and then subjected to 10 minutes of reaction at 30° C., and the reaction was stopped by the addition of 1 ml of methanol. The reaction solution was passed through a Dowex 1×8 column to adsorb un-hydrolyzed material and then the radioactivity was measured.
4) Concentration of each compound to be tested which inhibits 50% of the metabolic activity of type IV phosphodiesterase was calculated and expressed as IC50. (2) Method for measuring the activity to inhibit various phosphodiesterase isozymes
Results: The inhibition activity (IC50) value for h type of phosphodiesterase (Type I, Type II, Type III, e IV, and Type V) is shown in the following table.

type V phosphodiesterase = target: T1, type V phosphodiesterase (Homo sapiens, UniProt O76074); test: Phosphodiesterase inhibition activity (in vitro), Type V; format: biochemical, human (peripheral blood of a healthy person); conditions: 1 μM cGMP
T1 construct: from tissue; host or cells: human peripheral blood granulocyte fraction, soluble, Q Sepharose
From the text: (A) In order to evaluate selectivity of the compounds of the present invention for type IV phosphodiesterase, types I, II, III and V phosphodiesterase isozymes were purified in the following manner.
2) Solutions containing various phosphodiesterase isozymes were obtained from the thus obtained soluble fraction in the following manner. The thus, obtained soluble fraction was applied to a column of 1.6×10.0 cm packed with Q Sepharose which had been equilibrated with buffer A. Next, said column was washed with 300 ml of buffer A to remove non-absorbed protein. Phosphodiesterase was eluted with 200 ml of buffer A having 0.05 to 1.25M linear gradient of sodium acetate to collect about 40 fractions each containing 5.0 ml eluate. Each fraction was checked for cAMP- and cGMP-metabolizing phosphodiesterase activities. Of these fractions, a fraction having only cAMP-metabolizing activity and showing disappearance of the metabolizing activity by 0.1 μM cilostamide (a type III phosphodiesterase selective inhibitor) was used as the type III phosphodiesterase. […] These fractions were separately collected to be used as phosphodiesterase (types I, II and III) stock solutions for the examination of selectivity. p1 3) A solution containing type V phosphodiesterase was prepared from peripheral blood of a healthy person in the following manner. A 200 ml portion of physiological saline supplemented with dextran (3%) was added to 500 ml of heparinized peripheral blood and incubated at 37° C. for 40 minutes to effect precipitation of erythrocytes. The supernatant fluid after precipitation of erythrocytes was recovered and centrifuged once, and the resulting precipitate was suspended in buffer B (140 mM NaCl, 5 mM KCl, 5 mm glucose and 10 mM HEPES, pH 7.4), overlaid on a solution for density gradient centrifugation use (Ficoll solution) and then centrifuged at room temperature for 40 minutes at 450×g, thereby separating monocyte fraction and granulocyte fraction. The granulocyte fraction was washed once with buffer C (140 mM NaCl, 5 mM KCl, 1 mM CaCl2, 1 mM MgCl2, 5 mM glucose and 10 mM HEPES, pH 7.4) and suspended in buffer D (20 mM Bis-Tris, 5 mM dithioerythritol, 2 mM EGTA and 50 mM sodium acetate, pH 6.5) containing a protease inhibitor (40 μM leupeptin, 5 μM pepstatin A, 20 μM aprotinin, 50 μM phenyl-methyl-sulfonyl-fluoride or 2 mM benzamidine) and then the cells were disrupted using polytron and sonicator and subjected to ultracentrifugation (4° C., 100,000×g, 60 minutes) to give a soluble fraction.
4) The thus obtained soluble fraction was applied to a column of 1.6×10 cm packed with Q Sepharose which had been equilibrated with buffer D. Next, the column was washed with 120 ml of buffer D to remove non-absorbed protein. Phosphodiesterase was eluted with 300 ml of buffer D having 0.05 to 1.25M linear gradient of sodium acetate to collect fractions each containing 5.0 ml eluate. Each fraction was checked for cAMP- and cGMP-metabolizing phosphodiesterase activities. Fractions having only cGMP metabolizing activity were collected to be used as the type V phosphodiesterase stock solution.
(B) Inhibitory activities were measured using the thus obtained stock solutions of various phosphodiesterase isozymes.
1) A predetermined amount of each compound to be tested was subjected to 10 minutes of reaction at 30° C. in a reaction mixture containing 40 mM Tris-HCl (pH 8.0), 5 mM MgCl2, 4 mM 2-mercaptoethanol, 10 μM rolipram (a type IV phosphodiesterase selective inhibitor), 1 μM cAMP, 10 nM ^3 H-cAMP (in the case of type V phosphodiesterase, 1 μM cAMP and 10 nM ^3 H-cAMP are replaced by 1 μM cGMP and 100 nM ^3 H-cGMP) and each of the isozyme stock solutions. After completion of the reaction, the reaction mixture was boiled at 90° C. for 1 minute, ice-cooled, mixed with 1 unit of 5'-nucleotidase and then subjected to 10 minutes of reaction at 30° C., and the reaction was stopped by adding 1 ml of methanol. […]

Row | SMILES | IC50 [1] | IC50 (type V phosphodiesterase)
1 | CCn1c(=O)cc(-c2cccc(Cl)c2)c2cccnc21 [Example 15, 4-(3-Chlorophenyl)-1-ethyl-1,8-naphthyridin-2(1H)-one] | 58.9 µM | 41.2 µM
2 | CCc1cc(C)c2c(-c3cccc(Cl)c3)cc(=O)n(C)c2n1 [Example 27, 4-(3-Chlorophenyl)-7-ethyl-1,5-dimethyl-1,8-naphthyridin-2(1H)-one] | > 30 µM | 27.9 µM
3 | CCc1cc(C)c2c(-c3ccccc3)cc(=O)n(C)c2n1 [Example 26, 7-Ethyl-1,5-dimethyl-4-phenyl-1,8-naphthyridin-2(1H)-one] | 84.9 µM | 27.3 µM
4 | CCn1c(=O)cc(-c2cccc(Cl)c2)c2c(C)cc(C)nc21 [Example 29, 4-(3-Chlorophenyl)-1-ethyl-5,7-dimethyl-1,8-naphthyridin-2(1H)-one] | > 30 µM | 24.6 µM
5 | CCn1c(=O)cc(-c2cccc(Br)c2)c2c(C)cc(C)nc21 [Example 30, 4-(3-Bromophenyl)-1-ethyl-5,7-dimethyl-1,8-naphthyridin-2(1H)-one] | 31.2 µM | 8.66 µM
6 | Cc1cc(C)c2c(-c3cccc(Cl)c3)cc(=O)n(C)c2n1 [Example 24, 4-(3-chlorophenyl)-1,5,7-trimethyl-1,8-naphthyridin-2(1H)-one] | 98.3 µM | 9.7 µM

More lines, now with the values ahead:

Row | IC50 [1] | IC50 (type V phosphodiesterase) | SMILES
7 | > 30 µM | 8.39 µM | CCCn1c(=O)cc(-c2cccc(Br)c2)c2c(C)cc(CC)nc21 [Example 33, 4-(3-Bromophenyl)-7-ethyl-5-methyl-1-propyl-1,8-naphthyridin-2(1H)-one]
8 | 30.2 µM | 3.87 µM | CCc1cc(C)c2c(C3CCCCC3)cc(=O)n(CC)c2n1 [Example 49, 4-cyclohexyl-1,7-diethyl-5-methyl-1,8-naphthyridin-2(1H)-one]
9 | > 30 µM | 87 µM | CCn1c(=O)cc(C2CCCCC2)c2cccnc21 [Example 46, 4-cyclohexyl-1-ethyl-1,8-naphthyridin-2(1H)-one 0.45 hydrochloride 0.25 hydrate]
10 | > 30 µM | > 30 µM | CCc1cc(C)c2c(-c3cccc(Br)c3)cc(=O)n(CC)c2n1 [Example 31, 4-(3-bromophenyl)-1,7-diethyl-5-methyl-1,8-naphthyridin-2(1H)-one]
11 | > 30 µM | 4.79 µM | CCc1cc(C)c2c(-c3cccc(Cl)c3)cc(=S)n(C)c2n1 [Example 43, 4-(3-chlorophenyl)-7-ethyl-1,5-dimethyl-1,8-naphthyridine-2(1H)-thione]
12 | > 30 µM | 19.6 µM | CCn1c(=O)cc(-c2ccccc2)c2c(C)cc(C)nc21 [Example 38, 1-Ethyl-5,7-dimethyl-4-phenyl-1,8-naphthyridin-2(1H)-one]
13 | 31.9 µM | 14.5 µM | CCc1cc(C)c2c(-c3ccccc3)cc(=O)n(CC)c2n1 [Example 40, 1,7-Diethyl-5-methyl-4-phenyl-1,8-naphthyridin-2(1H)-one]
14 | 21.9 µM | 41.6 µM | CCc1cc(C)c2c(-c3cccc(Cl)c3)cc(=O)n(C3CC3)c2n1 [Example 35, 4-(3-Chlorophenyl)-1-cyclopropyl-7-ethyl-5-methyl-1,8-naphthyridin-2(1H)-on]
